“And” between values parts separate entries of the source, which are not always exact repeats. Identical values can stand only once. “Also recorded” adds a separate entry of the source.
Assays:
MRSA N315 [1] = assay: In vitro MICs and FICI for MRSA N315 after passage in vivo; type: cell-based, Staphylococcus aureus
Excerpt: We tested MRSA N315 cultures from blood drawn from mice treated with meropenem, piperacillin, or vehicle for their in vitro MICs against ME/PI/TZ and its constituent single drugs to determine whether adaptation occurred during passage in vivo. All four tested isolates of MRSA N315 had identical MICs for the triple ME/PI/TZ and all constituent drugs, and thus identical synergy (Table 6B).
Microbiological Studies: MRSA N315 was a gift from Dr. Steven Gill, University of Rochester, Rochester, NY, USA. S. aureus ATCC 29213 was acquired from the American Type Culture Collection. De-identified clinical MRSA isolates were selected at random from the clinical isolate strain bank at Barnes-Jewish Hospital, St. Louis, MO, USA. Minimal inhibitory concentration (MIC) assays for inhibition of growth were performed following the recommendations of the Clinical and Laboratory Standards Institute (CLSI)^43. Briefly, 23 antibacterial compounds (Supplemental Table 1) were selected based on coverage of all major drug classes, including three compounds not classified as antibiotics for human use, but with known antibacterial properties. Compounds were dissolved in dimethyl sulfoxide (DMSO) to a stock concentration of 50 mg/ml. Exceptions: Sulfometuron at 20 mg/ml in DMSO; Tobramycin, D-cycloserine, and colistin at 50 mg/ml in H2O and filtered at 2 μm. The 23 compounds were formulated into all 253 possible unique pairwise combinations at fixed ratios and at 100× concentrations in solvent. To increase the range of concentrations assayed for possible synergistic or antagonistic drug interactions (>2,000-fold), the drug stocks were arrayed into threefold dilution series down eight rows in 96-well Costar master drug plates, using a BioMek FX robotic liquid handler (Beckman Coulter, Inc.). Drugs were then mixed 1:100 into 96-well plates containing 200 μl/well of cation-adjusted Mueller-Hinton broth (CAMHB). All drug susceptibility assay wells were inoculated with ˜1 μl of mid-log phase bacterial culture at 0.5 McFarland standard (˜2×10^8 CFU/ml) and grown at 37° C. for 24 h. Endpoint growth at 37° C. after 24 h was determined by optical density at 600 nm ≥0.1 using a Synergy H1 reader (BioTek, Inc.).
(§1) Bacterial isolation from blood. Blood samples were checked for bacterial growth by plating and liquid culture. Whole blood (100 μl, three samples per group) was spread onto Brain-Heart Infusion (BHI) agar plates and incubated at 36° C. overnight. Colonies were counted and three colonies were selected, grown overnight in liquid BHI culture at 36° C., then mixed 1:1 with 30% LB-glycerol and stored at −80° C. The remaining three blood samples of each group (50 μl) was added to 5 ml BHI broth and incubated overnight at 36° C. When growth was noted, cultures were mixed 1:1 with 30% LB-glycerol and stored at −80° C.

MRSA N315 [2] = assay: Neutropenic mouse peritonitis model of MRSA infection; type: in vivo, mice; conditions: for Result (Alive/Dead) / Result (survivors per group) / Bacterial detection results: Plated: 67 mg/kg (of each) every 8 hrs SC; for Result (Alive/Dead) / Result (survivors per group): 6 doses; for Result (Alive/Dead) / Bacterial detection results: Plated: one line per mouse; for Result (survivors per group): six days post-infection; for Bacterial detection results: Plated: cheek bleed 11 h post-infection, ~100 uL blood plated, 67 mg/kg; for mice that succumbed to the infection: most within 48 h, 67 mg/kg (of each)
Excerpt: In vivo mouse model of MRSA infection: Animals. Outbred ICR female mice (6-8 weeks old, 17-25 g body weight; Harlan Laboratories, Inc., Indianapolis, IN, USA) were used. Mice were given Teklad 2019 Extruded Rodent Diet (Harlan Laboratories, Inc., Indianapolis, IN, USA) and water ad libitum. Mice were maintained in polycarbonate shoebox cages containing corncob (The Andersons, Inc., Maumee, OH, USA) and Alpha-dri (Shepherd Specialty Papers, Inc., Richland, MI, USA) bedding under 12-h light/12-h dark cycle at 22±1° C. All procedures involving animals were approved by the University of Notre Dame Institutional Animal Care and Use Committee.
Neutropenic mouse peritonitis model of MRSA infection. Doses of cyclophosphamide (100 μl of 50 mg/ml in 0.9% saline corresponding to 200 mg/kg; Alfa Aesar, Ward Hill, MA, USA) were given intraperitoneally (IP) at 4 days and 1 day prior to infection. The S. strain N315 was streaked onto Brain-Heart Infusion (BHI; Becton Dickson and Company, Sparks, MD, USA) agar and grown overnight at 36° C. The MRSA N315 bacterial inoculum was adjusted to approximately 1×10^8 CFU/ml (corresponding to OD540=0.5), then diluted to give 2×10^7CFU/ml. A 10% porcine mucin (Sigma-Aldrich, St. Louis, MO, USA) suspension was prepared and adjusted to pH 7. Immediately prior to infection, the bacterial inocula were diluted 1:1 with 10% mucin to a final concentration of 1×10^7CFU/ml in 5% mucin. The mice were then infected IP with 0.5 ml of this inoculum. In vivo dosing of compounds in mice was compared with mean or range peak human plasma concentrations of studied β-lactams^44,46,47,62,63.
Antibiotic preparation. Meropenem was obtained from AK Scientific, Inc. (Union City, CA, USA), piperacillin and tazobactam were obtained from Sigma-Aldrich Co. (St. Louis, MO, USA). Linezolid (CAS 165800-03-3) was obtained from AmplaChem (Carmel, IN, USA). Antibiotics were dissolved at a concentration of 16.67 mg/ml in 30% DMSO/30% propylene glycol/40% water. Linezolid was used as positive control and was prepared at 7.5 mg/ml. Vehicle (30% DMSO/30% propylene glycol/40% water) was included as negative control. The dosing formulations were sterilized by passing through 0.2 μm filter prior to injection.
as §1
Statistical Analyses: Data for minimal inhibitory concentrations (MICs) are derived from triplicate measurements. Adaptation data are taken from two replicate experiments for each drug combination condition. Data for qRT-PCR expression profiling are derived from three replicate experiments taken from three biological replicates each, with standard error of measurement calculated. Mice were treated in groups of six, and growth determination of bacteria determined via plate and broth culture in triplicate. Fisher's Exact test with Bonferroni correction was used for 8 independent tests (comparing each treatment to 610 vehicle).

[3] = system: MRSA COL pbpA antisense (AS) strain; assay: Xylose-inducible antisense-RNA strain susceptibility (PBP1 repression); type: cell-based, Staphylococcus aureus; conditions: targeted repression of PBP1
Excerpt: We confirmed the targets of the constituents of ME/PI/TZ by reducing the expression of PBP1, PBP2, PBP2a or PBP3 using a xylose-inducible antisense-RNA strategy in the MRSA COL strain background^49. When expression levels of PBP2a were attenuated, the strain behaved as a methicillin-susceptible S. aureus and was sensitized to all tested β-lactams (FIG. 6A-C).

[4] = colonies from mice given Vehicle

Structure (SMILES)	MIC (MRSA N315 [1]; Staphylococcus aureus, MRSA) [µg/mL]	MIC (MRSA N315 [1]; Wild-type N315) [µg/mL]	MIC (MRSA N315 [1]; colonies from mice given PI) [µg/mL]	MIC (MRSA N315 [1]; [4]) [µg/mL]	Result (Alive/Dead) (MRSA N315 [2])	Result (survivors per group) (MRSA N315 [2])	Bacterial detection results: Plated (MRSA N315 [2])	mice that succumbed to the infection (MRSA N315 [2])	susceptibility under xylose induction [3]
CCN1CCN(C(=O)N[C@@H](C(=O)N[C@@H]2C(=O)N3[C@@H]2SC(C)(C)[C@@H]3C(=O)O)c2ccccc2)C(=O)C1=O [Piperacillin]	33.3	33.3	33.3	33.3	Dead	0/6	Plated: 40 colonies	all mice	increased susceptibility
C[C@@H](O)[C@H]1C(=O)N2C(C(=O)O)=C(S[C@@H]3CN[C@H](C(=O)N(C)C)C3)[C@H](C)[C@H]12 [Meropenem]	33.3	33.3	33.3	33.3	Alive (4×) and Dead (2×)	4/6	Plated: 11 colonies; also recorded: Plated: 3 colonies	several mice	increased susceptibility; also recorded: larger zones of inhibition

From patent US20230293488A1, “COMPOSITIONS AND METHODS OF USE OF ANTIBACTERIAL DRUG COMBINATIONS” (priority 2015, published 2023)
